Experimental data published in patent publication US12161869B2, “Treatment of disorders associated with inflammation” (Galvani Bioelectronics Limited, priority 2017, dated 2024).
Counter-ions that a name gives are not always drawn.

Tested on: SpA BF changes during SpN stimulation
Test: Local lidocaine block of SpN stimulation-induced changes in splenic artery blood flow
Type: in vivo, pig
Details: 2% lidocaine hydrochloride solution applied locally around the implanted SpN cuff
Experimental: On the experimental day, the animal was sedated with ketamine (1.5 mg/kg) and midazolam (0.5 mg/kg) administered by intramuscular injection. An intravenous catheter was placed in one auricular vein, and anesthesia was induced by propofol (2 mg/Kg) administered intravenously. An endotracheal tube was placed, and anesthesia was maintained with sevoflurane inhalant combined with continuous rate infusion (CRI) of fentanyl (0.2 μg/Kg/min).
The surgical approach to SpN cuff implantation was as follows. The thoracolumbar junction was supported and slightly elevated using a sand bag. After appropriate surgical preparation (clipping and aseptic scrub with chlorhexidine gluconate and alcohol), the left flank was aseptically draped exposing a 20×25 cm area centered on the second to last rib. A 15 cm skin incision was made in the second to last intercostal space using monopolar electrocautery. The incision was continued through the subcutaneous tissues and intercostal musculature until the peritoneum was exposed. […]
By slight rotation of the splenic visceral base towards the operator, and placing gentle ventral traction on the spleen, the gastrosplenic ligament at the splenic hilum was incised using Metzembaum scissors, exposing the SpA. […] SpA blood flow readings were tested and finally the rib retractors were partially closed and the exposed incision covered with saline-soaked gauze sponges. […]

With CCN(CC)CC(=O)Nc1c(C)cccc1C [Lidocaine, lidocaine hydrochloride] the “effect on changes in SpA BF caused by SpN stimulation” value was “able to block the changes in SpA BF”.
